We go through six compounds from patent publication US12465605B2, “Methods and materials for gender-dependent treatment of cardiovascular dysfunction” (Mayo Foundation for Medical Education and Research, priority 2019, dated 2025).

Format in all cases: cell-based
For data set [1], the system named is Osterix (BMP target gene). The data set can be described thus: Osterix mRNA in aortic valve interstitial cells treated with sGC agonists. Conditions: for Osterix expression: 24 hours. As for the experimental part:
(§1) In vitro cell culture studies: Aortic valve interstitial cells were isolated using an outgrowth method, and were expanded in DMEM/F-10 medium with 10% FBS and studied in passages 2-10. Cells were treated for 24 hours under each experimental condition, at which point mRNA was harvested using lysis buffer. After mRNA isolation and reverse transcription, gene expression was measured using quantitative real-time RT-PCR and Taqman primers. Changes in gene expression were assessed by the ddCt method and expressed as fold-change normalized to control conditions.
In vitro studies were conducted in aortic valve interstitial cells to determine the effects of several sGC agonists on mRNA levels of Osterix, a BMP target gene. Cells were treated with nelociguat, vericiguat, lificiguat, or BAY41-8543, and Osterix mRNA levels were determined. Nelociguat and BAY41-8543 were used at concentrations ranging from 1 nM to 10 μM, while vericiguat and lificiguat were used at concentrations ranging from 1 nM to 1 μM.

The next data set deals with T1, sGC (Mus musculus, UniProt O54865).
T1 construct: endogenous in cells; host or cells: primary mouse aortic valve interstitial cells (mVICs) from C57BL6/J mice
T1 sequence (O54865 1-620): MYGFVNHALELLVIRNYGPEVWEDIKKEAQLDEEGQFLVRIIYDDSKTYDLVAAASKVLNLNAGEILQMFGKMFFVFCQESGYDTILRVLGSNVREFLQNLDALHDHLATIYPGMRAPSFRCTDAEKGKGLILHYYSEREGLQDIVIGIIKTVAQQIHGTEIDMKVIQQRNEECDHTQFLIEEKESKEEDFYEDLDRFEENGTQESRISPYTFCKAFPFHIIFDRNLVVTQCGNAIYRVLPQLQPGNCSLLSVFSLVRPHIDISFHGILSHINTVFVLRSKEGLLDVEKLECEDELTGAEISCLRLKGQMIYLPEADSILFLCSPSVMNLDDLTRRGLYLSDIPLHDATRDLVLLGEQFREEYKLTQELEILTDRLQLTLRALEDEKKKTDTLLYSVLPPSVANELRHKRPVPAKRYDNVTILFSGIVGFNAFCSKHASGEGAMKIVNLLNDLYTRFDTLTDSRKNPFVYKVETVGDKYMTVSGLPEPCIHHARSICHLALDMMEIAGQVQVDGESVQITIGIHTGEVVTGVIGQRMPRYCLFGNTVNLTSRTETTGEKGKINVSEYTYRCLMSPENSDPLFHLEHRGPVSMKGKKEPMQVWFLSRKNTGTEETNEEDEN
T1 sequence (Q9ERL9 1-691 partner): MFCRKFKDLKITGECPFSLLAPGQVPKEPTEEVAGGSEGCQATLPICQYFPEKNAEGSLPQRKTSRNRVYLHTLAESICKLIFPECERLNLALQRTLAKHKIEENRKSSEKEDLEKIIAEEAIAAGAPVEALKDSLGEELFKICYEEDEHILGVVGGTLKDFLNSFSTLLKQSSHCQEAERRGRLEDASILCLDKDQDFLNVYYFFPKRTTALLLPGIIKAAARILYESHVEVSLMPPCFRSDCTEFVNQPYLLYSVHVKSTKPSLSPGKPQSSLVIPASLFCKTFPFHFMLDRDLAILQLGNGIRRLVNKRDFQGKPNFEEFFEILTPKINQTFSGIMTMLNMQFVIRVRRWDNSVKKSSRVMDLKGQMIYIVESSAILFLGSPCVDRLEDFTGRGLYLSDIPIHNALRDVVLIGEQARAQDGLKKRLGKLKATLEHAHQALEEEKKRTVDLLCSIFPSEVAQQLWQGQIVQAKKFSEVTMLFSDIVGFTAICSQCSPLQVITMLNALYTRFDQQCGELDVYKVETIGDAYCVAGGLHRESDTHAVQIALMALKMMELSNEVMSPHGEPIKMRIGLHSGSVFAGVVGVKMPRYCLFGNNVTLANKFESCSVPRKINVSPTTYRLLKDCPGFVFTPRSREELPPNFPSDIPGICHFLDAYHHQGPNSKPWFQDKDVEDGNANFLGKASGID
The data set can be described thus: sGC signaling (phospho-VASP239) in mouse aortic valve interstitial cells. Conditions: otherwise naïve mVICs, vs vehicle-treated cells. As for the experimental part:
To confirm that ataciguat effectively activated sGC in cells, mouse aortic valve interstitial cells (mVICs) were isolated from C57BL6/J mice treated with ataciguat or other sGC agonists as internal controls. […] To determine whether ataciguat could attenuate signaling cascades central to the initiation and progression of valve calcification in vitro, cells were treated with BMP2 with or without ataciguat. In these studies, ataciguat reduced phospho-SMAD1/5/8 signaling (e.g., canonical BMP signaling) as well as expression of osteogenic genes induced by BMP2 (e.g., osterix).

Data set [2] concerns LPA-induced BMP signaling. Kind of data set: LPA-induced BMP signaling (Osterix mRNA) in aortic valve interstitial cells. Conditions: treatment with 18:0 lyso-PA alone. As for the experimental part:
as §1
Additional studies were conducted in aortic valve interstitial cells to examine the effects of ataciguat on LPA-induced BMP signaling and BMP target gene expression. Cells were treated with 18:0 lyso-PA, with or without ataciguat, and Osterix mRNA levels were determined.

`Nc1nc(-c2nn(Cc3ccccc3F)c3ncccc23)nc(N)c1N1CCOCC1` [BAY41-8543, 2-[1-[(2-fluorophenyl)methyl]-1H-pyrazolo[3,4-b]pyridin-3-yl]-5-(4-morpholinyl)-4,6-pyrimidinediamine]: the Osterix expression result in data set [1] (at 10 μM) was “highly efficacious”; in data set [1] (tested 1 nM to 10 μM), “dose-dependent reductions”.

As to `CCN(CC)/[N+]([O-])=N/O.CCNCC` [DEA-NONOATE], the “sGC-dependent signaling (phospho-VASP^239 levels)” value at sGC is listed as “increased phospho-VASP^239 levels to a similar extent”.

For the compound `OCc1ccc(-c2nn(Cc3ccccc3)c3ccccc23)o1` [lificiguat], the Osterix expression result in data set [1] (tested 1 nM to 1 μM) is reported as “lose efficacy at higher concentrations”.

Take `COC(=O)Nc1c(N)nc(-c2nn(Cc3ccccc3F)c3ncccc23)nc1N` [nelociguat, methyl (4,6-diamino-2-(1-(2-fluorobenzyl)-1H-pyrazolo[3,4-b]pyridin-3-yl)pyrimidin-5-yl)carbamate]: the “concentration that may be cytotoxic” value in data set [1] (suggested from loss of effect at the highest concentration) is at least 10 µM.

`COC(=O)Nc1c(N)nc(-c2nn(Cc3ccccc3F)c3ncc(F)cc23)nc1N` [vericiguat, methyl (4,6-diamino-2-(5-fluoro-1-(2-fluorobenzyl)-1H-pyrazolo[3,4-b]pyridin-3-yl)pyrimidin-5-yl)carbamate]: in data set [1] (tested 1 nM to 1 μM), the Osterix expression entry is on record as “only at the highest dose tested”.

lysophosphatidic acid [18:0 lyso-PA]: the “expression of Osterix” value in data set [2] is recorded as “increased expression”.
